Experimental data taken from US8962627B2, “Oxime derivatives and their use as allosteric modulators of metabotropic glutamate receptors” (Prestwick Chemical, Inc., priority 2009, dated 2015).

How the values were obtained:
[1] = molecular target: T1, human mGluR4 transiently over-expressed in HEK-293 cells (Homo sapiens, UniProt Q14833); test: Human mGluR4 positive allosteric modulator evaluation using Ca++ functional assay; format: cell-based; details: for EC50: HEK-293 cells co-transfected with hmGluR4 and chimeric G protein, EC10 glutamate, intracellular calcium (Fluo4AM), read-out: mean EC50 of agonist/positive allosteric modulator activity on mGluR4
T1 construct: expressed in transfected cells; host or cells: HEK-293 cells, transient co-transfection by electroporation
T1 sequence (Q14833 33-912): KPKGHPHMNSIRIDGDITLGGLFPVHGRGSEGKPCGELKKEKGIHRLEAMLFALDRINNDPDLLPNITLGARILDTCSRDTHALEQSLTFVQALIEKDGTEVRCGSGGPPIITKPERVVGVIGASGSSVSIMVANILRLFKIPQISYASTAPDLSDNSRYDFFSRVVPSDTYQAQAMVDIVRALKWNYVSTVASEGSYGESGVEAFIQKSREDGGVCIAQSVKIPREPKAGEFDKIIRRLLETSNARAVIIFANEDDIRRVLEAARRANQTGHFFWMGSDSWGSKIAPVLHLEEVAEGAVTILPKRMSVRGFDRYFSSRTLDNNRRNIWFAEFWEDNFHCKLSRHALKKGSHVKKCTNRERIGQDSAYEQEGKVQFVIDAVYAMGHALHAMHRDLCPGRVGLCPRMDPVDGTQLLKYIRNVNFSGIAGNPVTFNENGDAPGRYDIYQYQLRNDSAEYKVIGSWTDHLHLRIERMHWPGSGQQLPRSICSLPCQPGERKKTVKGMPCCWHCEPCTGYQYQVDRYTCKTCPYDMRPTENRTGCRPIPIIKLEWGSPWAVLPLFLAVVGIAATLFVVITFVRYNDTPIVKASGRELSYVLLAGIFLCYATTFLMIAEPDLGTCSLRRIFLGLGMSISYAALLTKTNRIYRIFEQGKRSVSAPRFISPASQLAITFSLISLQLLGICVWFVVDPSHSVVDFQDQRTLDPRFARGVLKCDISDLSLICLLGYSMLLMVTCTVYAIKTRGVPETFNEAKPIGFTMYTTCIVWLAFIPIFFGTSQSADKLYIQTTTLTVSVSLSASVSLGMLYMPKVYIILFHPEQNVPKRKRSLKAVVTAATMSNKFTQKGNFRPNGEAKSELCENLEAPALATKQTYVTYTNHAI
Method in brief: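 HEK-293 cells transiently co-transfected with hmGluR4 and a chimeric G protein, loaded with Fluo4AM; Ca2+ fluorescence read 485/525 nm. Compound alone read 60 s, then EC10 glutamate added and read 60 s more. EC50 fitted from 6–9 concentrations, duplicate, two independent runs.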

mice [2] = test: Marble burying test in the mouse; format: in vivo; details: p<0.001
Excerpt: In-Vivo Evaluation in the Marble Burying Test in the Mouse
The method, which detects anxiolytic/tranquilizing activity, follows that described by Broekkamp at al. (Eur. J. Pharmacol., 126, 223-229, 1986). Mice exposed to novel object (marbles) will bury them in the sawdust floor covering. Anxiolytics decrease the number of marbles buried at non-sedative doses.
Mice were individually placed in transparent plastic cages (33×21×18 cm) with 5 cm of sawdust on the floor and 25 marbles grouped in the centre of the cage. The cage was covered with an inverted plastic cage. Each test cage, together with the marbles, was impregnated with mouse odor before-hand by leaving 10 mice in the cage for 15 minutes. These mice then played no further role in the experiment. The number of marbles covered by sawdust (⅔ or more) was counted at the end of a 30 minute test. 12 mice were studied per group. The test was performed blind (apart from positive control). The compound of Example 85 was evaluated at 2 doses (100 and 300 mg/kg), administered p.o. 30 minutes before the test, and compared with vehicle control groups. Clobazam (8 mg/kg i.p.), administered 30 minutes before the test, was used as reference substance and was compared with the vehicle control group. Data were analyzed by comparing treated groups with control group using unpaired Student's t tests.

mice [3] = test: Haloperidol-induced catalepsy model (bar test) in the mouse; format: in vivo; details: 30 mg/kg i.p. consecutively with haloperidol 1 mg/kg i.p.; compared with vehicle; FIG. 1
Procedure: In-Vivo Evaluation in the Haldoperidol-Induced Catalepsy Model in the Mouse
This method, which detects anti-Parkinsonian activity, follows that described by Pires et al. (J Med and Biol Res 38 1867-1872, 2005; Shiozaki et al., Psychopharmacology 147, 90-95, 1999)
Catalepsy was assessed using the bar test in mice submitted to acute intra-peritoneal administration of Haloperidol 1 mg/kg. Mice (male Rj: NMRI mice, weighing 25-30 g at the beginning of the experiment) placed in group of 5 in Plexiglas cages, were injected with Haloperidol (1 mg/kg i.p.). […] The catalepsy response of one mouse was measured as the time the animal maintained an imposed posture with both forelimbs placed on a horizontal 0.9 cm diameter wire bar suspended 4 cm above a platform. The end point of catalepsy was considered to occur when both forelimbs were removed from the bar, the mouse climbed onto the bar or if the animal moved its head in an exploratory manner. A cut-off time of 180 seconds was applied. The degree of catalepsy was scored 45 min after Haloperidol administration and continued at 45 minutes intervals for a total of 270 minutes. Between determinations, the animals were returned to their home cages. The compound of Example 63, administered i.p. consecutively with haloperidol, was evaluated at 30 mg/kg and compared with a vehicle control group. […]

EC50 [1]	melting point	Compound	other results
< 1 µM	252 to 254 °C	Cl.ON=c1cc(-c2cc3sccc3cn2)oc2ccc(OCCCc3cccnc3)cc12 [Example 135, 6-(3-Pyridin-3-yl-propoxy)-2-thieno[3,2-c]pyridin-6-yl-chromen-4-one oxime, hydrochloride]	–
< 1 µM	> 255 °C (dec.)	CN(C)C1CCN(CCOc2ccc3oc(-c4cc5cccn5cn4)cc(=NO)c3c2)CC1.Cl.Cl [Example 99, 6-[2-(4-dimethylamino-piperidin-1-yl)-ethoxy]-2-pyrrolo[1,2-c]pyrimidin-3-yl-chromen-4-one oxime, dihydrochloride]	–
< 5 µM	265 to 270 °C	ON=c1cc(-c2cc3ccccc3cn2)oc2cc(C#Cc3ccncc3)ccc12 (mixture of isomers) [Example 26, 2-isoquinolin-3-yl-7-(pyridin-4-yl)ethynyl-chromen-4-one oxime]	–
< 1 µM	214 to 215 °C	ON=c1cc(-c2cc3cccn3cn2)oc2ccc(OCCc3ccc(C(F)(F)F)cc3)cc12 [Example 137, 2-Pyrrolo[1,2-c]pyrimidin-3-yl-6-[2-(4-trifluoromethyl-phenyl)-ethoxy]-chromen-4-one, oxime]	–
< 5 µM	246 to 248 °C	COc1ccc2c(=NO)cc(-c3cc4ccccc4cn3)oc2c1 (mixture of isomers) [Example 56, 2-isoquinolin-3-yl-7-methoxy-chromen-4-one oxime]	–
< 5 µM	> 270 °C (dec.)	Cl.ON=c1cc(-c2cc3cccn3cn2)oc2ccc(OCCc3ccncc3)cc12 [Example 136, 6-(2-Pyridin-4-yl-ethoxy)-2-pyrrolo[1,2-c]pyrimidin-3-yl-chromen-4-one oxime, hydrochloride]	–
< 5 µM	203 to 205 °C	CN(C)CCOc1ccc2oc(-c3cc4ccccc4cn3)cc(=NO)c2c1 (mixture of isomers) [Example 44, 6-(2-dimethylamino-ethoxy)-2-isoquinolin-3-yl-chromen-4-one oxime]	–
< 1 µM	178 to 184 °C	COC1CCCN(CCOc2ccc3oc(-c4cc5cccn5cn4)cc(=NO)c3c2)C1.Cl (centres unmarked) [Example 108, 6-[2-(3-methoxy-piperidin-1-yl)-ethoxy]-2-pyrrolo[1,2-c]pyrimidin-3-yl-chromen-4-one oxime, hydrochloride]	–
< 1 µM	247 to 249 °C	ON=c1cc(-c2cc3cccn3cn2)oc2ccc(OCCc3ccc(Cl)cc3)cc12 [Example 140, 6-[2-(4-Chloro-phenyl)-ethoxy]-2-pyrrolo[1,2-c]pyrimidin-3-yl-chromen-4-one oxime]	–
< 1 µM	180 to 185 °C	Cl.ON=c1cc(-c2cc3cccn3cn2)oc2ccc(CCCCN3CCOCC3)cc12 [Example 102, 6-(4-morpholin-4-yl-butyl)-2-pyrrolo[1,2-c]pyrimidin-3-yl-chromen-4-one oxime, hydrochloride]	–
< 1 µM	> 250 °C (dec.)	Cl.ON=c1cc(-c2cn3cccc3cn2)oc2ccc(OCCN3CCOCC3)cc12 [Example 123, 6-(2-Morpholin-4-yl-ethoxy)-2-(8aH-pyrrolo[1,2-a]pyrazin-3-yl)-chromen-4-one oxime, hydrochloride]	–
< 1 µM	–	ON=c1cc(-c2cc3cccn3cn2)oc2ccccc12 [Example 63, 2-Pyrrolo[1,2-c]pyrimidin-3-yl-chromen-4-one oxime]	anticataleptic activity (mean time of latency spent on the bar) (mice [3]): significant anticataleptic activity

The remaining lines, values behind:

Compound	EC50 [1]	melting point	other results
Cl.ON=c1cc(-c2cc3cccn3cn2)oc2ccc(OCCN3CCOCC3)cc12 [Example 85, 6-(3-Morpholin-4-yl-ethoxy)-2-pyrrolo[1,2-c]pyrimidin-3-yl-chromen-4-one oxime hydrochloride]	< 1 µM	–	decrease of the number of marbles covered by sawdust, as compared with vehicle controls (mice [2]; 100 mg/kg p.o. 30 minutes before the test): −70%; decrease of the number of marbles covered by sawdust, as compared with vehicle controls (mice [2]; 300 mg/kg p.o. 30 minutes before the test): −83%
ON=c1cc(-c2cc3cccn3cn2)oc2ccc(OCCc3cccc(F)c3)cc12 [Example 138, 6-[2-(3-Fluoro-phenyl)-ethoxy]-2-pyrrolo[1,2-c]pyrimidin-3-yl-chromen-4-one, oxime]	< 1 µM	205 to 207 °C	–
ON=c1cc(-c2cc3cccn3cn2)oc2ccc(OCCOc3ccncc3)cc12 [Example 147, 6-[2-(Pyridin-4-yloxy)-ethoxy]-2-pyrrolo[1,2-c]pyrimidin-3-yl-chromen-4-one oxime]	< 1 µM	198 to 200 °C	–
CN(C)c1ccc2oc(-c3cc4ccccc4cn3)cc(=NO)c2c1 [Example 39, 6-dimethylamino-2-isoquinolin-3-yl-chromen-4-one oxime]	< 5 µM	223 to 225 °C	–
ON=c1cc(-c2cn3cccc3cn2)oc2ccccc12 [Example 91, 2-Pyrrolo[1,2-a]pyrazin-3-yl-chromen-4-one oxime]	< 1 µM	> 276 °C	–
ON=c1cc(-c2ccc3ccccc3c2)oc2ccccc12 [Example 74, 2-Naphthalen-2-yl-chromen-4-one oxime]	–	224 to 226 °C	PAM activity on mGluR4 ([1]; up to 100 μM): no PAM activity
ON=c1cc(-c2cc3cccn3cn2)oc2ccc(OCCOc3ccccc3)cc12 [Example 160, 6-(2-Phenoxy-ethoxy)-2-pyrrolo[1,2-c]pyrimidin-3-yl-chromen-4-one oxime]	< 1 µM	210 to 215 °C	–
Cl.ON=c1cc(-c2cc3sccc3cn2)oc2ccc(OCCN3CCC(F)(F)C3)cc12 [Example 133, 6-[2-(3,3-Difluoro-pyrrolidin-1-yl)-ethoxy]-2-thieno[3,2-c]pyridin-6-yl-chromen-4-one oxime, hydrochloride]	< 1 µM	226 to 229 °C	–
ON=c1cc(-c2cc3cccn3cn2)oc2ccc(OCCc3ccccc3)cc12 [Example 146, 6-Phenethyloxy-2-pyrrolo[1,2-c]pyrimidin-3-yl-chromen-4-one oxime]	< 1 µM	210 °C	–
Cl.O=C(NCCN1CCOCC1)c1ccc2oc(-c3cc4cccn4cn3)cc(=NO)c2c1 [Example 115, 4-(hydroxyimino)-2-pyrrolo[1,2-c]pyrimidin-3-yl-4H-chromene-6-carboxylic acid (2-morpholin-4-yl-ethyl)-amide, hydrochloride]	< 1 µM	230 to 235 °C	–
Cl.OC[C@@H]1CCCN1CCOc1ccc2oc(-c3cc4cccn4cn3)cc(=NO)c2c1 [Example 95, 6-[2-((S)-2-hydroxymethylpyrrolidin-1-yl)-ethoxy]-2-pyrrolo[1,2-c]pyrimidin-3-yl-chromen-4-one oxime, hydrochloride]	< 5 µM	> 220 °C (dec.)	–
